Type in all cases: physicochemical
A short description of series [1]: Hygroscopicity / stable existence of the obtained salt solid. Conditions: concluding statement. How it is done:
With reference to the preparation method of Example 1, the preparation of alkaline amino acid salts: lysine salt, arginine salt, and proline salt of the compound of formula A was carried out using methanol as the reaction solvent.

The nature of a further series: Solubility test in water. Conditions: for solubility: thermodynamic from solid, in purified water, saturated state. The protocol:
The salts obtained in Example 1, Comparative examples 1, 2 and 6, and the compound of formula A were tested for solubility in water, and the test method was as follows:
Test method: the samples to be tested were taken in a certain amount, gradually added to the purified water respectively, and continuously shaked until the samples reached the saturated state, the weighed amount of the samples to be tested and the used amount of the solvent were recorded, the concentrations at which the samples were dissolved were calculated, and the test results were shown in the following table: […]

The nature of series [2]: Stability test, accelerated test at 40° C.±2° C./75% RH±5% RH. Conditions: for Content (%) / Maximum single impurity (%) / Moisture (%) / Total impurity (%): 40° C.±2° C./75% RH±5% RH. The protocol:
The sodium salt of the compound of formula A obtained in Example 1 (packaging conditions: low-density polyethylene bag+polyester/aluminum/polyethylene composite bag for pharmaceutical packaging) was subjected to an accelerated test at 40° C.±2° C./75% RH±5% RH, and the results were as follows: […]

Each structure is given as a SMILES string.

Data on two compounds can be found in patent US12195471B2, “Salt of aldose reductase inhibitor, and preparation method and application thereof” (CSPC ZHONGQI PHARMACEUTICAL TECHNOLOGY (SHIJIAZHUANG) CO., …, priority 2019, dated 2025).

For `O=C([O-])Cc1nn(Cc2nc3cc(C(F)(F)F)ccc3s2)c(=O)c2nccnc12.[Na+]` [Example 1], in series [1], the “hygroscopicity (in words)” value is given as “low hygroscopicity”. In the series “Solubility test in water”, the concentration in solution (solubility) came to 10000 µg/mL and the “solubility in water (in words)” value was “good solubility”. For the same compound, in series [2] (0 Month), the “Content (%)” value was found to be 100.8%, the “Maximum single impurity (%)” value is 0.03%, the “Moisture (%)” value was determined as 0.6% and the “Total impurity (%)” value is 0.40%. For the same compound, in series [2] (1 Month), the “Content (%)” value is given as 99.6%, the “Maximum single impurity (%)” value is 0.03%, the “Moisture (%)” value stood at 0.7% and the “Total impurity (%)” value is on record as 0.45%. Also, in series [2] (2 Month), the “Content (%)” value is reported as 99.9%, the “Maximum single impurity (%)” value was found to be 0.03%, the “Moisture (%)” value amounted to 0.7% and the “Total impurity (%)” value was 0.37%. Besides, in series [2] (3 Month), the “Content (%)” value was found to be 99.6%, the “Maximum single impurity (%)” value came to 0.03%, the “Moisture (%)” value is recorded as 0.8% and the “Total impurity (%)” value came out at 0.42%. Besides, in series [2] (6 Month), the “Content (%)” value was determined as 100.9%, the “Maximum single impurity (%)” value is given as 0.03%, the “Moisture (%)” value turned out to be 0.8% and the “Total impurity (%)” value stood at 0.54%. Besides, in series [2] (concluding statement), the “quality stability (in words)” value is listed as “stable quality”.
Regarding `O=C(O)Cc1nn(Cc2nc3cc(C(F)(F)F)ccc3s2)c(=O)c2nccnc12` [Compound of formula A, reference compound], in “Solubility test in water”, the solubility was 35 µg/mL and the “solubility in water (in words)” value is “insoluble in water”.

The term solubility denotes the dissolved amount per volume that the medium holds. Low values mean little dissolved substance, high ones much dissolved substance.
